Results on 30 molecules are retold here after PubChem BioAssay (NCI).

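1) Cells in 96-well plates. 2) Compound, 48 h, 5 concentrations. 3) Linear interpolation between surrounding doses. 4) Unreached endpoint = highest concentration. GI50 = concentration required for 50% inhibition of growth. TGI: total growth inhibition.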

Holding throughout (assay): inhibition of tumour cell growth, NCI panel, 48 h
For test [1], the system named is OVCAR-5 ovarian.
The test system of test [2] is DU-145 prostate.
Test [3] has as its system SF-539 CNS.
Test [4] deals with RPMI-8226 leukemia.
For test [5], the system named is HCT-15 colon.
The subject of test [6] is HCT-116 colon.
In test [7] the test system is UACC-62 melanoma.
Test [8] concerns KM12 colon.
In test [9] the test system is A498 renal.

On to `O=C(N/N=C(/COc1ccc(Cl)cc1)N=Cc1cccnc1)c1ccncc1`, for which the TGI in [1], in [2], in test [3], in test [4], in [5] and in test [6] was over 100 µM each time. The TGI in test [7], in test [8] and in test [9] was over 100 µM in each case.

On to `C#CCn1ncc2c(SC)ncnc21`, for which the TGI in test [1], in test [2], in [3], in [4], in test [5] and in [6] was over 100 µM each time. Also, the TGI in [7], in [8] and in test [9] was over 100 µM in each case.

In the case of `OC1(c2ccc(Cl)cc2)c2c(ccc3c2OCO3)C2=NCCN21` (stereo unspecified), the TGI in [1] was over 100 µM; in test [2], over 100 µM; in test [3], over 100 µM; in test [4], 42.5 µM; in [5], over 100 µM; in [6], over 100 µM. Further, the TGI came out at 37 µM in test [7], 43.9 µM in test [8] and 48.2 µM in [9].

As to `Cn1c(-c2cccs2)cc(-c2ccccc2)c1-c1cccs1`, the TGI in [1], in test [2], in test [3], in [4], in test [5] and in test [6] was over 100 µM each time. Moreover, the TGI in test [7], in test [8] and in test [9] was over 100 µM each time.

Consider `O=C1N(c2ccccc2)C2(c3ccccc3)CC3CCCC13S2` (stereo unspecified), for which the TGI in [1] was over 100 µM; in test [2], over 100 µM; in [3] it was over 100 µM; in test [4], 98.8 µM; in test [5], over 100 µM; in test [6], over 100 µM. Besides, the TGI in test [7], in test [8] and in test [9] was over 100 µM in each case.

Consider `O=C(C=P(c1ccccc1)(c1ccccc1)c1ccccc1)c1cccc(-c2cccc([N+](=O)[O-])c2)c1`, for which the TGI in [1] is over 100 µM; in test [2], over 100 µM; in [3] it was 54.4 µM; in test [4], 4.53 µM; in [5], 21.1 µM; in test [6] it was over 100 µM. The results for the TGI in [8] and in test [9] were over 100 µM and 7.87 µM, respectively.

On to `COc1ccc2c(c1)CCN=C2Cc1cc(OC)c(OC)cc1CCCl`, for which the TGI in test [1] was over 100 µM; in [2] it was over 100 µM; in test [3] it was 65.7 µM; in test [4], over 100 µM; in [6] it was over 100 µM; in test [7], over 100 µM. Moreover, the TGI in test [8] was over 100 µM.

Take `O=Cc1cc([N+](=O)[O-])no1`: the TGI was over 100 µM in test [1]; over 100 µM in test [2]; over 100 µM in test [4]; over 100 µM in test [5]; 33.7 µM in test [6]; 46.3 µM in [7]. Besides, the results for the TGI in [8] and in test [9] were 54.2 µM and over 100 µM, respectively.

Regarding `Cc1cc2c(cc1Cl)SC(c1ccccc1)C(=O)NS2(=O)=O` (stereo unspecified), the TGI is over 100 µM in [1]; over 100 µM in test [2]; 73.3 µM in test [3]; over 100 µM in [4]; 64 µM in test [5]; 45.6 µM in [6]. The TGI is over 100 µM in [8] and 75.5 µM in test [9].

For `N/C(=N\S(=O)(=O)c1cccc2nsnc12)Nc1ccc(Cl)cc1`, the TGI in [1], in test [2], in [3], in test [4], in test [5] and in [6] was over 100 µM throughout. The values for the TGI in test [7], in test [8] and in test [9] were 35.2 µM, over 100 µM and 59.5 µM, respectively.

As to `COC(=O)c1cc2c3c(cc(N(C)C)c2[nH]1)N(C(=O)c1cc2cc(OC)c(OC)c(OC)c2[nH]1)CC3CCl` (stereo unspecified), the TGI in test [1] is 0.25 µM; in test [2], under 0.0025 µM; in test [4] it was 0.0324 µM; in [5], 19.2 µM; in test [6], under 0.0025 µM; in test [7] it was 0.0565 µM. Further, the TGI was 0.0118 µM in [8] and 0.0292 µM in [9].

As for `CCOC(=O)C[C@@H]1C2(C=C[C@@]13CO3)OCC(C)(C)CO2`, the TGI in test [1], in test [2], in test [3], in [5], in [6] and in [7] was over 100 µM in each case. In test [9], this molecule came in with a TGI of over 100 µM.

On to `CS(=O)(=O)OC1CN2CCC1CC2` (stereo unspecified), for which the TGI in test [1], in test [2], in test [4], in test [5], in test [6] and in [7] was over 100 µM each time. Further, the TGI in test [8] and in test [9] was over 100 µM in each case.

Regarding `CN(c1cc2ncc(=O)[nH]c2cc1NC(N)=NCc1ccc(Cl)cc1)C1CCCCC1`, the GI50 in test [1] was 6.58 µM; in test [2], 7.56 µM; in test [3] it was 7.68 µM; in test [4] it was 3.54 µM; in [5], 8.27 µM; in test [6] it was 5.44 µM. The values for the GI50 in [7], in test [8] and in [9] were 6.8 µM, 4.52 µM and 8.04 µM, respectively. In addition, the TGI in test [1] is 14.1 µM; in test [2] it was 14.3 µM; in test [3] it was 14.6 µM; in test [4] it was 13.4 µM; in test [5], 15.4 µM; in test [6], 12.3 µM. The TGI turned out to be 14 µM in test [7], 10.9 µM in test [8] and 15.4 µM in [9].

With `Nc1cc2c(nnn2C2OC(COCc3ccccc3)C(OCc3ccccc3)C2OCc2ccccc2)c(=O)[nH]1` (stereo unspecified), the TGI in test [1] is over 100 µM; in test [2] it was over 100 µM; in test [3] it was 69.5 µM; in test [5], over 100 µM; in test [6], 46.9 µM; in test [7] it was 38.1 µM. For the same molecule, the TGI in [8] was 54.6 µM; in [9], over 100 µM.

As for `CCCCCCNC(=O)c1cc(CCc2cc(O)ccc2O)ccc1O`, the TGI in [1] is 19.3 µM; in [2], 22.7 µM; in test [3], 5.31 µM; in [5], 12.8 µM; in test [6] it was 13.6 µM; in test [7], 10.1 µM. Also, the TGI came to 39.6 µM in [8] and 15.4 µM in test [9]. Moreover, the GI50 in test [3] was 2.18 µM; in test [6], 3.59 µM; in test [7] it was 3.26 µM.

For `N#CC(c1nc2ccccc2s1)c1ncnc(Cl)c1[N+](=O)[O-]` (stereo unspecified), the TGI was 91.7 µM in [1]; over 100 µM in [2]; 61.3 µM in test [3]; over 100 µM in test [4]; 35.8 µM in test [5]; 26.4 µM in test [6]. Moreover, the TGI in test [8] and in test [9] was over 100 µM each time.

As for `C/C(=C\c1ccccc1)C(=O)NCc1ccc(C(=O)NCCC(C)C)cc1`, the TGI in test [1], in [2], in [3], in test [4], in test [5] and in [6] was over 100 µM each time. Also, the TGI in [7], in [8] and in [9] was over 100 µM in each case.

In the case of `O=C1CS(=O)(=O)C(c2cccc(Oc3ccccc3)c2)N1c1cccc(Cl)c1` (stereo unspecified), the TGI in test [1] was over 100 µM; in test [2], over 100 µM; in test [3], 37.4 µM; in test [5], over 100 µM; in test [6], 29.6 µM; in [7], 29.4 µM. For the same molecule, the TGI in test [8] was over 100 µM.

Regarding `O=C(C[C@H](NC(=O)OCc1ccccc1)C(=O)NC1Cc2ccccc2OC1=O)OCc1ccccc1` (stereo partly specified), the TGI is over 100 µM in test [1]; over 100 µM in test [2]; over 100 µM in test [4]; over 100 µM in [5]; 76.3 µM in test [6]; over 100 µM in test [8]. The molecule also yielded a TGI in test [9] of over 100 µM.

For `Cc1cccc2cc3c(ccc4ccccc43)c[n+]12`, the TGI in test [1] was over 100 µM; in test [2], over 100 µM; in [3], 66.2 µM; in [4], over 100 µM; in [5] it was over 100 µM; in test [6], over 100 µM. Besides, the values for the TGI in [7] and in test [8] were 63.1 µM and 32 µM, respectively.

For the molecule `Nc1ccc(-c2cssc2=S)cc1`, the TGI in [1] was over 100 µM; in [3], over 100 µM; in [4], 5.65 µM; in [5], over 100 µM; in test [6], over 100 µM; in test [7] it was 94.9 µM. This molecule had a TGI in test [8] of over 100 µM.

Regarding `CC(C)CCC[C@@H](C)[C@H]1CC[C@H]2[C@@H]3CC[C@H]4C[C@H](N)CC[C@]4(C)[C@H]3CC[C@]12C`, the TGI in [1] was 36.7 µM; in [2], 33.9 µM; in test [4], over 100 µM; in [5], 96.2 µM; in test [6], over 100 µM; in test [7], 43.1 µM. Moreover, the results for the TGI in test [8] and in [9] were over 100 µM and 57.5 µM, respectively.

`O=c1cc(-c2ccc(O)cc2)n(C2CC2)c2ccccc12`: the TGI in [1] turned out to be 19.4 µM; in test [2], 21.5 µM; in [3], 18.9 µM; in test [4] it was 9.05 µM; in [5], 16.8 µM; in test [6], 13.1 µM. The TGI is 14.8 µM in [7] and 16.2 µM in test [8].

Consider `O=C(O)c1cc(=O)[nH]c(SCc2ccccc2)n1`, for which the TGI in [1], in [2], in [5], in [6], in test [7] and in [8] was over 100 µM in each case. Further, the TGI in test [9] is over 100 µM.

As to `CC(=O)Nc1ccc(N=C2C(c3ccccc3)=C(SC3=C(c4ccccc4)C(=Nc4ccc(NC(C)=O)cc4)c4ccccc43)c3ccccc32)cc1`, the TGI in [1] was over 100 µM; in [2], over 100 µM; in [3] it was 28.5 µM; in [4], 81.1 µM; in [5], over 100 µM; in test [6], over 100 µM. Besides, the values for the TGI in [8] and in [9] were 89.5 µM and 87.1 µM, respectively.

Consider `COc1ccc(C2CC(c3cccc(Nc4ccncc4)c3)=NN2c2ccc(Cl)cc2)cc1` (stereo unspecified), for which the GI50 was 1.76 µM in test [1]; 1.74 µM in test [2]; 1.63 µM in test [3]; 1.88 µM in test [5]; 1.65 µM in test [6]; 1.73 µM in test [7]. Also, the values for the GI50 in test [8] and in test [9] were 1.72 µM and 1.52 µM, respectively. In addition, the TGI is 3.68 µM in test [1]; 3.17 µM in [2]; 3.03 µM in test [3]; 3.58 µM in test [5]; 3.36 µM in test [6]; 3.22 µM in test [7]. Further, the TGI was 3.37 µM in test [8] and 8.16 µM in test [9].

Take `N#Cc1c(NC(=S)Nc2ccc(Cl)cc2)sc2c1CCCC2`: the TGI was over 100 µM in test [1]; over 100 µM in test [2]; 67.9 µM in [4]; over 100 µM in test [5]; over 100 µM in [6]; over 100 µM in test [7]. Further, the TGI in test [8] and in test [9] was over 100 µM each time.

For `CC(C)(C)OC(=O)NCC(=O)NC1c2ccsc2/C(=N/O)[C@H]1O` (stereo partly specified), the TGI in test [1], in test [2], in [3], in test [5], in test [6] and in test [7] was over 100 µM throughout. Besides, the TGI in test [9] is over 100 µM.

Regarding `N#Cc1c2c(c(Nc3cccc(C(F)(F)F)c3)n3c1nc1ccccc13)CCC2`, the TGI in test [1], in [2], in [3], in [4], in [5] and in test [6] was over 100 µM each time. The TGI in [8] and in [9] was over 100 µM each time.
